Measurements taken from ChEMBL document CHEMBL1201862, “PubChem BioAssay data set” (2004).
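Cultured in 96-well plates, cells were exposed to test compound for 48 hours across five concentrations. GI50 marks 50% less growth.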 Active and inactive are the calls of the source. Rule as the data show it: active = GI50 up to about 1.1 µM and inactive = higher.

Legend:
Assay in all cases: inhibition of tumour cell growth, NCI panel, 48 h
[1] = tested on: OVCAR-4
[2] = tested on: SK-MEL-2
[3] = tested on: Hs-578T
[4] = tested on: NCI-H23
[5] = tested on: OVCAR-3
[6] = tested on: HOP-92
[7] = tested on: HCT-116
[8] = tested on: SF-295
[9] = tested on: U-251
[10] = tested on: UO-31
[11] = tested on: DU-145
[12] = tested on: MDA-MB-435
[13] = tested on: A498
[14] = tested on: COLO 205
[15] = tested on: UACC-62
[16] = tested on: OVCAR-5
[17] = tested on: SN12C
[18] = tested on: HCC 2998
[19] = tested on: SW-620
[20] = tested on: CAKI-1
[21] = tested on: HL-60
[22] = tested on: SF-268
[23] = tested on: UACC-257
[24] = tested on: SNB-75
[25] = tested on: SK-MEL-28
[26] = tested on: MDA-MB-231
[27] = tested on: K562
[28] = tested on: HOP-62
[29] = tested on: SF-539
[30] = tested on: NCI/ADR-RES
[31] = tested on: SR
[32] = tested on: SK-MEL-5
[33] = tested on: M14
[34] = tested on: 786-0
[35] = tested on: ACHN
[36] = tested on: IGROV-1
[37] = tested on: RXF 393
[38] = tested on: NCI-H522
[39] = tested on: SK-OV-3
[40] = tested on: RPMI-8226
[41] = tested on: HT-29
[42] = tested on: HCT-15
[43] = tested on: Malme-3M
[44] = tested on: PC-3
[45] = tested on: MDA-N
[46] = tested on: MOLT-4
[47] = tested on: A549
[48] = tested on: SNB-19
[49] = tested on: T47D
[50] = tested on: NCI-H226
[51] = tested on: NCI-H460
[52] = tested on: OVCAR-8
[53] = tested on: CCRF-CEM
[54] = tested on: LOX IMVI
[55] = tested on: EKVX

Measured: GI50

Cc1cc2ccccc2c[n+]1CC(=O)CC([O-])(C(F)(F)F)C(F)(F)F
inactive: [1] > 100 µM | [2] > 100 µM | [3] > 100 µM | [4] 87.5 µM | [5] 53.2 µM | [6] 58.1 µM | [7] > 100 µM | [8] > 100 µM | [9] > 100 µM | [10] > 100 µM | [11] > 100 µM | [12] > 100 µM | [13] 36.1 µM | [14] > 100 µM | [15] > 100 µM | [16] > 100 µM | [17] > 100 µM | [18] > 100 µM | [19] > 100 µM | [20] > 100 µM | [21] > 100 µM | [22] > 100 µM | [23] > 100 µM | [24] > 100 µM | [25] > 100 µM | [26] > 100 µM | [27] 72.8 µM | [28] > 100 µM | [29] > 100 µM | [30] > 100 µM | [31] > 100 µM | [32] 50.7 µM | [33] > 100 µM | [34] > 100 µM | [35] > 100 µM | [36] 41.3 µM | [37] 37.3 µM | [38] 85.1 µM | [39] > 100 µM | [40] 69.7 µM | [41] 56.6 µM | [43] > 100 µM | [44] > 100 µM | [45] > 100 µM | [46] 79.8 µM | [47] > 100 µM | [48] > 100 µM | [49] > 100 µM | [50] > 100 µM | [51] > 100 µM | [52] > 100 µM | [53] 90.8 µM | [54] > 100 µM | [55] > 100 µM
> 100 µM: [42]
